# Results as given in patent US9861640B2, “Medicament for treatment of Alzheimer's disease” (KEMPHYS LTD., priority 2013, dated 2018).
# Test system: CD36
# Assay: Immunoblot of CD36 in rat primary microglia
# Assay type: cell-based
# Conditions: 5 μM each, 48 h; relative to vehicle-treated cells
# From the text: Primary microglia (type 1) were harvested from primary mixed glial cell cultures prepared from neonatal Wistar rat pups, as previously reported. Mouse microglial cell line MG5 and mouse glial cell line A1 were maintained as previously described. Mouse neuroblastoma cell line N1E-115 and Neuro 2a (American Type Culture Collection, Manassas, Va., USA) were maintained in Dulbecco's modified Eagle's medium (DMEM) supplemented with 10% fetal bovine serum (FBS), 20 U/ml penicillin (Invitrogen, Gaithersburg, Md., USA), and 20 μg/ml streptomycin (Invitrogen). Primary rat microglia were treated with Am80 (5 μM) and/or HX630 (5 μM) in the presence and absence of GW9662 (10 μM) for 48 h in Eagle's MEM supplemented with 10% FBS and 0.2% glucose. MG5 cells and A1 cells were treated with Am80 (5 μM) and/or HX630 (5 μM) for 48 h in DMEM containing 10% FBS. […]
# Rat primary microglia and mouse microglial MG5 cells (5×10^6 cells per 100-mm dish) were homogenized in RIPA buffer [10 mM Hepes-NaOH (pH 7.4) containing 150 mM NaCl, 1 mM EDTA, 1% Triton X-100, 0.5% sodium deoxycholate, 0.1% SDS, 1 mM PMSF, 1 mg/ml leupeptin. […] Bound horseradish peroxidase-labeled antibodies were then detected via chemiluminescence (an ECL kit; Pierce, Rockford, Ill., USA). Protein concentrations were determined with the BCA Protein Assay Reagent (Pierce) and Bradford Protein Assay Reagent (Pierce).
compound,measurement,value
"CN1c2ccccc2N=C(c2ccc(C(=O)O)cc2)c2cc3c(cc21)C(C)(C)CCC3(C)C [HX630, 4-[5H-2,3-(2,5dimethyl-2,5-hexano)-5-methyldibenzo[b,e]-diazepin-11-yl]benzoic acid]",CD36 expression in rat primary microglia,1.3 fold
